Results reported in patent US12404262B2 (priority 2021, dated 2025).
In brackets after ≈: the same amount, converted by molar mass. Read-outs that look alike come from different tables or passages of the source.

How the values were obtained:
[1] = physchem; conditions: 25 °C, thermodynamic from solid
[2] = Oral bioavailability PK in dog; type: in vivo; conditions: dog (Beagle), oral gavage, solution vehicle 5% ethanol, 20% propylene glycol, 75% water; based on exposure of Intermediate 5 in plasma
Method: Oral dose (suspension and solution vehicle) of the compound being tested was administered via gavage in rat (Sprague Dawley) and dog (Beagle). Serial blood samples were collected via jugular vein into pre-chilled K2EDTA with 2 mM dichlorvos (final concentration) for up to 168h. Whole blood was processed into plasma by centrifuge (3000 rpm for 10 minutes at 5C) within 30 minutes of collection.
Plasma samples were analyzed by direct protein precipitation with acetonitrile and further dilution with water before injecting onto Sciex API 5500 LC/MS/MS system for analysis.
AUC was calculated as Area under the plasma concentration vs. time curve from 0 h to infinity.
The solution vehicles used were 1) 5% ethanol, 20% propylene glycol, and 75% water and 2) 30% 10 mM HCl, 5% ethanol, 45% polyethylene glycol 300, and 20% propylene glycol.

[3] = 0.1N HCl, 1.0% DMSO, 24-hour incubation at ambient temperature, maximum theoretical 100 μM, first value of the cell
[4] = 1×PBS buffer (pH 7.4), 1.0% DMSO, 24-hour incubation at ambient temperature, maximum theoretical 100 μM, second value of the cell

SMILES | solubility ([1]; fassif) | pH 2 solubility [3] | pH 7 solubility [4] | solubility ([1]; fessif) | pH 2 solubility (pH 2) | pH 7 solubility (pH 7.4) | Dog F % (solution) [2]
CC(C)(C#Cc1ccc(-c2ccc(Cl)c3c(N(C(=O)OCCN(CCC(=O)O)C(=O)OCOP(=O)(O)O)S(C)(=O)=O)nn(CC(F)(F)F)c23)c([C@H](Cc2cc(F)cc(F)c2)NC(=O)Cn2nc(C(F)(F)F)c3c2C(F)(F)[C@@H]2C[C@H]32)n1)S(C)(=O)=O [Compound 135, 3-((2-(((4-chloro-7-(2-((S)-1-(2-((3bS,4aR)-5,5-difluoro-3-(trifluoromethyl)-3b,4,4a,5-tetrahydro-1H-cyclopropa[3,4]cyclopenta[1,2-c]pyrazol-1-yl)acetamido)-2-(3,5-difluorophenyl)ethyl)-6-(3-methyl-3-(methylsulfonyl)but-1-yn-1-yl)pyridin-3-yl)-1-(2,2,2-trifluoroethyl)-1H-indazol-3-yl)(methylsulfonyl)carbamoyl)oxy)ethyl)(((phosphonooxy)methoxy)carbonyl)amino)propa noic acid] | 1290 µg/mL (≈ 1010 µM) | 1 μM | 100 μM | – | – | – | –
CC(C)(C#Cc1ccc(-c2ccc(Cl)c3c(N(C(=O)O[C@H](CNC(=O)OCOP(=O)(O)O)CC(=O)O)S(C)(=O)=O)nn(CC(F)(F)F)c23)c([C@H](Cc2cc(F)cc(F)c2)NC(=O)Cn2nc(C(F)(F)F)c3c2C(F)(F)[C@@H]2C[C@H]32)n1)S(C)(=O)=O [Compound 136, (S)-3-(((4-chloro-7-(2-((S)-1-(2-((3bS,4aR)-5,5-difluoro-3-(trifluoromethyl)-3b,4,4a,5-tetrahydro-1H-cyclopropa[3,4]cyclopenta[1,2-c]pyrazol-1-yl)acetamido)-2-(3,5-difluorophenyl)ethyl)-6-(3-methyl-3-(methylsulfonyl)but-1-yn-1-yl)pyridin-3-yl)-1-(2,2,2-trifluoroethyl)-1H-indazol-3-yl)(methylsulfonyl)carbamoyl)oxy)-4-((((phosphonooxy)methoxy)carbonyl)amino)butanoic acid] | 1490 µg/mL (≈ 1180 µM) | – | – | 2910 µg/mL (≈ 2300 µM) | 3/57 μM | 3/57 μM | –
CC(C)(C#Cc1ccc(-c2ccc(Cl)c3c(N(C(=O)OCCNC(=O)OCOP(=O)(O)O)S(C)(=O)=O)nn(CC(F)(F)F)c23)c([C@H](Cc2cc(F)cc(F)c2)NC(=O)Cn2nc(C(F)(F)F)c3c2C(F)(F)[C@@H]2C[C@H]32)n1)S(C)(=O)=O [Compound 137, 2-((((phosphonooxy)methoxy)carbonyl)amino)ethyl (4-chloro-7-(2-((S)-1-(2-((3bS,4aR)-5,5-difluoro-3-(trifluoromethyl)-3b,4,4a,5-tetrahydro-1H-cyclopropa[3,4]cyclopenta[1,2-c]pyrazol-1-yl)acetamido)-2-(3,5-difluorophenyl)ethyl)-6-(3-methyl-3-(methylsulfonyl)but-1-yn-1-yl)pyridin-3-yl)-1-(2,2,2-trifluoroethyl)-1H-indazol-3-yl)(methylsulfonyl)carbamate] | 950 µg/mL (≈ 786 µM) | 1 μM | 85 μM | – | – | – | –
CC(C)(C#Cc1ccc(-c2ccc(Cl)c3c(NS(C)(=O)=O)nn(CC(F)(F)F)c23)c([C@H](Cc2cc(F)cc(F)c2)NC(=O)Cn2nc(C(F)(F)F)c3c2C(F)(F)[C@@H]2C[C@H]32)n1)S(C)(=O)=O [Intermediate 5, N—((S)-1-(3-(4-chloro-3-(methylsulfonamido)-1-(2,2,2-trifluoroethyl)-1H-indazol-7-yl)-6-(3-methyl-3-(methylsulfonyl)but-1-yn-1-yl)pyridin-2-yl)-2-(3,5-difluorophenyl)ethyl)-2-((3bS,4aR)-5,5-difluoro-3-(trifluoromethyl)-3b,4,4a,5-tetrahydro-1H-cyclopropa[3,4]cyclopenta[1,2-c]pyrazol-1-yl)acetamide, reference compound] | – | 0.11 μM | 0.32 μM | – | – | – | 16%
